Laboratory results as given in patent publication US6319910A, “Method for inhibiting cyclooxygenase-2 and tumor necrosis factor alpha” (Hospital for Joint Diseases, priority 1998, dated 2001).

Assays:
COX-2 [1] = target: T1, COX-2 (Mus musculus, UniProt Q05769); assay: COX-2 specific activity in cell-free extracts of LPS-stimulated RAW 264.7 cells (PGE2 by RIA); type: biochemical, murine
T1 construct: using total unfractionated cell extracts; endogenous in cells; host or cells: RAW 264.7 cells, LPS-induced; cell-free extract
T1 sequence (Q05769 18-604): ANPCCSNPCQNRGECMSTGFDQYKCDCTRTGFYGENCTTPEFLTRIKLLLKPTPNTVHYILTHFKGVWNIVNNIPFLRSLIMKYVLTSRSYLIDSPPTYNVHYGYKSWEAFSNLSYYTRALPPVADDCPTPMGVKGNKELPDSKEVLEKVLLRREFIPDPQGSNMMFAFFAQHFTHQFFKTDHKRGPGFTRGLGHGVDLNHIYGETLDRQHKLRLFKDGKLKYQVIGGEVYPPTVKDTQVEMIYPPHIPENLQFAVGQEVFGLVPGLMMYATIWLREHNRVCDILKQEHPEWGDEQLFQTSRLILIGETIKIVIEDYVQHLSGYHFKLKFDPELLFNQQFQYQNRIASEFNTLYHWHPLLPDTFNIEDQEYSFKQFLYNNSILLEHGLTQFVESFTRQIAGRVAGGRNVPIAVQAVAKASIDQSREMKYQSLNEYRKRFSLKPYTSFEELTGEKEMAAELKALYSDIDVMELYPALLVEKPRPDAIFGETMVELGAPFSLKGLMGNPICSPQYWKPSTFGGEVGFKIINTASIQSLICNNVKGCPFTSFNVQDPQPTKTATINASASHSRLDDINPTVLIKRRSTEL
Protocol: Raw 264.7 cells were stimulated with LPS and cell-free extracts were prepared as follows. RAW 264.7 cells were induced with LPS (100 ng/ml) in the presence or absence of tetracyclines or hydrocortisone for 14-20 hours. Following induction, the cells were pelleted at 4° C. and resuspended in Tris buffer: 10 mM, pH 7.4 containing 10 μg/ml each of chymostatin, antipain, leupeptin and pepstatin, 1 mM DDT and 1 mM PMSF. Cells were lysed in a Polytron PA 1200 homogenizer (Kinematica AG, Switzerland) with the cocktail of protease inhibitors after 3 cycles of rapid freeze-thawing. The lysate was centrifuged at 18,000 at 4° C. in an eppendorf centrifuge, and the resulting supernatant was used as cell-free extracts. The protein was measured by BCA assay reagent (Pierce, Rockford, Ill.) using BSA as standard. […] The specific enzyme activity was defined as ng of PGE2 released/mg protein/37° C. for 20 minutes.
RAW 264.7 cells were stimulated with 1 μg/ml of LPS for 16 hours and cell-free extracts were prepared as described above. The extracts were incubated with different modulators for 20 minutes at 37° C. before adding the substrate to initiate the enzyme reaction, which was terminated after 30 minutes by heat inactivation. The data represent one of the two experiments, the PGE2 analysis from each sample was done in triplicates n=3. The p value is a comparison between control and experimentals.

RAW 264.7 cells [2] = assay: PGE2 production/accumulation in LPS-stimulated RAW 264.7 cells; type: cell-based, murine; settings: for inhibition at 10 µg/mL: Mus musculus, RAW264.7, 16 h, read-out: PGE2 % Inhibition or (Increase)
Protocol: (§1) Murine macrophages (RAW 263.7 cells) which were grown in Dulbecco's modified eagle medium (DMEM) containing 10% fetal bovine serum, 2 mM glutamine, 50 U/ml penicillin and 50 μg/ml streptomycin, were stimulated with 100 ng/ml LPS to induce both NOS and COX-2 at 16 hr. […] The data presented in FIG. 1 represents mean±SD as examined by T test were n=3.
(§2) The effects of CMTs 1, 2, 3, 5 and 8 on PGE2 and NO accumulation in RAW 264.7 cells were further evaluated as described above for CMT-3. […]

TNFα = TNFα release in the medium by HEK 293 cells permanently transfected with human proTNFα (ELISA); type: cell-based; settings: words; for Effect on spontaneous TNFα release: FIG. 8, 16 hours
Protocol: HEK 293 cells were transfected with the proTNFα cDNA (wild) to prepare a stable cell line. […] A mutant form of proTNFα cDNA which could not be cleaved by the endogenous TNFα convertase (TACE) to release soluble TNFα was also transfected in separate human HEK 293 cells. The soluble TNFα was estimated by ELISA from the wild type and mutant transfected cells from the medium (FIG. 6).
HEK 293 cells were grown as previously described by American Type Culture Collection (ATCC). […] The HEK 293 cells were incubated with CMT-3 to examine the effects of CMT-3 on TNFα release in the medium.
HEK 293 cells were grown under the conditions previously described by ATCC. Various compounds, including CMT-3 and doxycycline/minocyclines were incubated with proTNFα transfected HEK 293 cells releasing TNFα in the medium at 16 hours. […] Soluble TNFα was estimated by ELISA from the medium.

OA-affected cartilage [3] = assay: Spontaneous PGE2 release by OA-affected cartilage (ex vivo organ culture); type: cell-based, human; settings: Table 2; 5 μg/ml
Protocol: (§3) Human osteoarthritis affected cartilage spontaneously release nitric oxide (NO) and PGE2 in the medium as previously reported (Amin et al, 1995a; 1997a). The OA-organ cultures were set up as described (Amin et al, 1995a; 1997a). Briefly, total knee articular cartilage from tibial plateau and femoral condyle were harvested from OA-affected patients. The cartilage was mixed and cut into 3-mm discs and 4-6 discs were placed in triplicate or quadruplicate, in a 24-well plate in 2.0 ml of Ham's F-12 medium supplemented with 0.2% endotoxin free human albumin, 10 mM Hepes pH 7.4 and antibiotics in the presence of various modulators, as previously described (Amin et al, 1995a; 1997a). CMT-8 was used at pharmacologically relevant concentrations in DMSO (<0.01% final concentration) as carrier. An equivalent amount of DMSO was also added in the control cultures.
(§4) The p value between control and CMT-8 treated values for PGE2≤0.1 (insignificant) whereas the p values between NMMA treated cartilage and CMT-8 treated cartilage was ≤0.001 (significant). The data are represented as mean±SD as examined by T test when n=3. Data represent±SD value as determined by Student's t test n=4. The P values described are compared with control unstimulated OA-cartilage. The data represents one of the two similar experiments. P values for PGE2 and Nitrite=^a≤0.5; ^b≤0.1; ^c≤0.05; ^d≤0.01.

OA-affected cartilage [4] = assay: Spontaneous nitrite/nitric oxide release by OA-affected cartilage (ex vivo organ culture); type: cell-based, human; settings: Table 2; 5 μg/ml
Protocol: as §3, §4

RAW 264.7 cells [5] = assay: Nitrite (NO) production/accumulation in LPS-stimulated RAW 264.7 cells; type: cell-based, murine; settings: for inhibition at 10 µg/mL: Mus musculus, RAW264.7, 16 h
Protocol: as §1, §2

COX-2 [6] = assay: Expression/modification (size) of COX-2 in LPS-stimulated murine macrophages, Western blot; type: cell-based; settings: LPS 100 ng/ml, words
Protocol: (§5) RAW 263.7 cells were grown as previously described (Amin et al, 1995b). Murine macrophages stimulated with 100 ng/ml LPS were incubated with CMT-3 or tunicamycin (a glycosylation inhibitor). […] Nitrite and PGE2 were estimated as previously described (Amin et al, 1995b). It is quite possible that CMT-3 may inhibit COX-2 and PGE2 production by post translational modification of COX-2 which may be similar to tunicamycin inhibition. The data represents the mean±SD evaluated by T test (n=3).
Murine macrophage cells were cultivated as previously described (Amin et al, 1995b). […] cells were stimulated with 100 ng/ml of LPS in the presence of CMT-3, CMT-5 and glycosylation inhibitor, tunicamycin. The cells were grown for 16 hr and harvested. The cell free extracts were prepared as previously described (Amin et al, 1995b). In FIG. 4A, 50 μg of protein was loaded in each well and run on SDS-PAGE gels and blotted onto Western blots using a specific anti COX-2 antibody as previously described (Amin et al, 1997a). The positive control is a standard COX-2. […] The size is approximately 2000 D smaller (CMT-3 form) than the native COX-2 shown as a standard. […] These experiments indicate that CMT-3 induces modification of the COX-2 protein. The SDS PAGE analysis and Western blotting of COX-2 was carried out as described above.

NOS = NOS expression in LPS-stimulated murine macrophages; type: cell-based; settings: FIG. 2; LPS 100 ng/ml; words
Protocol: as §5

[7] = Experiment II, LPS 100 ng/ml, compound 10 μg/ml, 16 hours
[8] = Experiment I, LPS 100 ng/ml, compound 10 μg/ml, 16 hours

## CC(=O)Oc1ccccc1C(=O)O [Aspirin, aspirin, reference compound]
COX-2 [1]; CMT-3 27 μM, CMT-8 27 μM, aspirin 56 μM, indomethacin 28 μM, words
  Effect on specific activity of COX-2: significantly inhibited the specific activity of COX-2
COX-2 [1]; Table 3, cell-free extracts, 10 μg (aspirin amount not given)
  COX-2 Specific Activity: 2.1 ± 0.1 PGE2 ng/mg protein

## C[C@@]1(O)c2cccc(O)c2C(O)=C2C(=O)[C@]3(O)C(O)=C(C(N)=O)C(=O)C[C@@H]3C[C@@H]21 [CMT-1, 4-dedimethylaminotetracycline]
RAW 264.7 cells [2]; 16 h, 10 ug/mL
  PGE2 accumulation: 31.5 ± 2.5 ng/mL
RAW 264.7 cells [2]; [7]
  PGE2 accumulation: 30.2 ± 8.0 ng/mL
TNFα
  Effect on spontaneous TNFα release: inhibit the spontaneous TNFα release
TNFα; HEK 293 cells transfected with proTNFα cDNA, low levels
  Inhibition of TNFα (summary statement): inhibiting TNFα
OA-affected cartilage [3]
  PGE2: 131.8 ± 37.7 ng/mL
OA-affected cartilage [4]
  Nitrite: 82.0 ± 33.0 µM
RAW 264.7 cells [5]; [8]
  Nitrite: 50.8 µM
RAW 264.7 cells [5]; [7]
  Nitrite: 20.3 µM

## CN(C)C1C(=O)C(C#N)=C(O)C2(O)C(=O)C3=C(O)c4c(O)cccc4C(C)(O)C3CC12 (stereo not shown) [CMT-2]
RAW 264.7 cells [2]; [8]
  PGE2 accumulation: 26.8 ± 8.8 ng/mL
RAW 264.7 cells [2]; [7]
  PGE2 accumulation: 22.9 ± 5.0 ng/mL
TNFα
  Effect on spontaneous TNFα release: not CMT-2 and CMT-5, inhibit the spontaneous TNFα release
OA-affected cartilage [3]
  PGE2: 145.2 ± 61.6 ng/mL
OA-affected cartilage [4]
  Nitrite: 84.0 ± 20.0 µM
RAW 264.7 cells [5]; [7]
  Nitrite: 23.3 ± 3.5 µM

## C[C@@H]1C[C@@H]([C@H](O)CC2CC(=O)NC(=O)C2)C(=O)[C@@H](C)C1 [Cycloheximide, cycloheximide, reference compound]
TNFα; FIG. 7
  Effect on TNFα release in the medium: inhibited the release of TNFα in the medium
TNFα
  Effect on spontaneous TNFα release: inhibit the release of TNFα

## C[C@]12CCC(=O)C=C1CC[C@@H]1[C@@H]2[C@@H](O)C[C@@]2(C)[C@H]1CC[C@]2(O)C(=O)CO [Hydrocortisone, hydrocortisone, reference compound]
RAW 264.7 cells [2]; 16 h, 10 ug/mL
  PGE2 accumulation: 12.3 ± 2.6 ng/mL
RAW 264.7 cells [2]; [7]
  PGE2 accumulation: 9.5 ± 0.5 ng/mL
  inhibition at 10 µg/mL: 50%
RAW 264.7 cells [2]; [8]
  inhibition at 10 µg/mL: 52%
RAW 264.7 cells [5]; 16 h, 10 ug/mL
  Nitrite: 34.3 µM
RAW 264.7 cells [5]; [7]
  Nitrite: 12.9 µM
  inhibition at 10 µg/mL: 40%
RAW 264.7 cells [5]; [8]
  inhibition at 10 µg/mL: 32%

## tunicamycin [reference compound]
COX-2 [6]; FIG. 2
  Effect on COX-2 expression: inhibit
COX-2 [6]; FIG. 4A, 16 hr, Western blot
  Effect on size of COX-2: much smaller than the native form
NOS
  Effect on NOS expression: inhibit
RAW 264.7 cells [2]; FIG. 2, LPS 100 ng/ml, words
  Effect on PGE2 production: inhibit
RAW 264.7 cells [5]; FIG. 2, LPS 100 ng/ml, words
  Effect on NO production: inhibit
